Article PMC9053591 (RSC Advances, 2020)
Where “and” joins values, the source holds several entries; their conditions need not be identical. Equal values may be shown once. Where a name gives a salt, the structure may show the parent alone.

Assays:
AChE from electric eel = AChE from electric eel (Electrophorus electricus, UniProt O42275); assay: AChE inhibition, Ellman's method; type: biochemical; details: IC50 ± SD (μM) AChE, means ± SD of three experiments
BuChE from equine serum = BuChE from equine serum (Equus caballus, UniProt P81908); assay: BuChE inhibition, Ellman's method; type: biochemical
AChE = AChE (Electrophorus electricus, UniProt O42275); assay: Kinetic characterization of AChE inhibition, Lineweaver–Burk plot; type: biochemical; details: Lineweaver–Burk reciprocal plots; compound at 2, 6 and 8 μM
[1] = In vitro cytotoxicity, MTT assay; type: cell-based, human; details: human, SH-SY5Y cells
SH-SY5Y cells [2] = assay: In vitro cytotoxicity, MTT assay; type: cell-based, human; details: 1 and 5 μM, 24 h, MTT
[3] = test system: scopolamine induced mice model of dementia; assay: Elevated plus maze; type: in vivo; details: n = 6, SEM
scopolamine induced mice = assay: Social recognition test, scopolamine induced mice; type: in vivo
Aβ1-42 [4] = molecular target: T1, Aβ1-42 (Homo sapiens, UniProt P05067); assay: Confocal laser scanning microscopy of Aβ1-42 aggregation inhibition; type: biochemical; details: Aβ1-42 co-incubated with compound, 48 h, 37 °C
Aβ1-42 [5] = molecular target: T1, Aβ1-42; assay: TEM study of inhibition of Aβ1-42 fibril formation; type: biochemical; details: Aβ1-42 50 μM, compound 50 μM, 37 °C, 48 h
SH-SY5Y cells [6] = assay: Neuroprotection against H2O2-induced death, MTT assay; details: 200 μM H2O2 for 24 h

Sequence of BuChE from equine serum (P81908 whole entry): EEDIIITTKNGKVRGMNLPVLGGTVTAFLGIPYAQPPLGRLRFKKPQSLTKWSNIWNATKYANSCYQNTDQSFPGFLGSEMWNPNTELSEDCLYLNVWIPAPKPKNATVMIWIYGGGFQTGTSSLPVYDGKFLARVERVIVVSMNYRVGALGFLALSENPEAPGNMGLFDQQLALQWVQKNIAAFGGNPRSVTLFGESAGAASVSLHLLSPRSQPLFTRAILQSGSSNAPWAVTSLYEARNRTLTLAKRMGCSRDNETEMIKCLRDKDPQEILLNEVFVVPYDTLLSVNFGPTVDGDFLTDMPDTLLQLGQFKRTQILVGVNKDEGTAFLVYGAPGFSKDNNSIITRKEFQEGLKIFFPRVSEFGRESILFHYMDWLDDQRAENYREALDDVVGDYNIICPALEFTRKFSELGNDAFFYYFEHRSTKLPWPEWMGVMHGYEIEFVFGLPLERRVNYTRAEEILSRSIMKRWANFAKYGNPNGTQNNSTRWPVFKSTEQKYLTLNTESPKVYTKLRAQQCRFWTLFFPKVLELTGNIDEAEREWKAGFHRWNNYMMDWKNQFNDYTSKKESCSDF
Sequence of AChE from electric eel (O42275 24-633): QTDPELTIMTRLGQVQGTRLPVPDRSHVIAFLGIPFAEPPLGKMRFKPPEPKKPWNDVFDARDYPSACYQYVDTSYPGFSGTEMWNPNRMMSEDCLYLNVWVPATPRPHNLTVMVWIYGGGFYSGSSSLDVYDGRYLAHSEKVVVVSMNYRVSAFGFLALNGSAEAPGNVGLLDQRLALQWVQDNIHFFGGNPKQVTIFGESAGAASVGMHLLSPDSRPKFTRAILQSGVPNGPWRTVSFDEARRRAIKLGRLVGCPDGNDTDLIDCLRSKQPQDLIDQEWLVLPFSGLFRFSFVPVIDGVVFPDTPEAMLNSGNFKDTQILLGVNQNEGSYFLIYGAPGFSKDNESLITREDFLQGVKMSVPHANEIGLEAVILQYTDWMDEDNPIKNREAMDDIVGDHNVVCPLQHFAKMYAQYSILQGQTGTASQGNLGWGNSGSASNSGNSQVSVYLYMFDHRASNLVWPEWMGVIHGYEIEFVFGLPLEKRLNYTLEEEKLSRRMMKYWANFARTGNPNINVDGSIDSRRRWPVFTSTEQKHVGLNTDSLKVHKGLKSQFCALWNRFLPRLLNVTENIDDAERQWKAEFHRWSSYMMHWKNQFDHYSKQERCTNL
T1 sequence (P05067 672-713): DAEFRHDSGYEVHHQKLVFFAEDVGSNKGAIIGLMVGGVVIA
Sequence of AChE (O42275 24-633): as the sequence (O42275 24-633) above

In the case of `CS(=O)(=O)c1ccc2nc(NC(=O)CCN3CCN(C(c4ccccc4)c4ccccc4)CC3)sc2c1` [Compound 11, 3-(4-Benzhydryl-piperazin-1-yl)-N-(6-methanesulfonyl-benzothiazol-2-yl)-propionamide], the IC50 (AChE from electric eel) is reported as 4.54 µM and 4.55 µM and the IC50 (BuChE from equine serum) is reported as over 100 µM.

Compound `CS(=O)(=O)c1ccc2nc(NC(=O)CCN3CCN(c4ccc(C(F)(F)F)cc4)CC3)sc2c1` [Compound 17, N-(6-Methanesulfonyl-benzothiazol-2-yl)-3-[4-(4-trifluoromethyl-phenyl)-piperazin-1-yl]-propionamide] has an IC50 (AChE from electric eel) of 26.4 ± 0.551 µM and an IC50 (BuChE from equine serum) of over 100 µM.

`CS(=O)(=O)c1ccc2nc(NC(=O)CCN3CCN(c4ccc([N+](=O)[O-])cc4)CC3)sc2c1` [Compound 7, N-(6-Methanesulfonyl-benzothiazol-2-yl)-3-[4-(4-nitro-phenyl)-piperazin-1-yl]-propionamide] showed an IC50 (AChE from electric eel) of 11.3 ± 1.8 µM and an IC50 (BuChE from equine serum) of over 100 µM.

In the case of `CS(=O)(=O)c1ccc2nc(NC(=O)CCN3CCN(c4ccccn4)CC3)sc2c1` [Compound 12, N-(6-Methanesulfonyl-benzothiazol-2-yl)-3-(4-pyridin-2-yl-piperazin-1-yl)-propionamide], the IC50 (AChE from electric eel) is reported as 2.31 µM and 2.32 µM, the IC50 (BuChE from equine serum) is reported as over 100 µM and the “Type of AChE inhibition” value (AChE) is reported as “uncompetitive type of inhibition”. The viability at 24 h, 10 µM [1] was over 67%, the Cytotoxicity (SH-SY5Y cells [2]) was “no cytotoxicity” and the “Transfer latency (TL)” value ([3]; scopolamine 3 mg kg−1 + compound 10 mg kg−1 i.p., 7 days) was 12.81 ± 2.08 s. For the same compound, the “Transfer latency (TL)” value ([3]; scopolamine 3 mg kg−1 + compound 20 mg kg−1 i.p., 7 days) was 12.62 ± 2.60 s, the “T2/T1 ratio (second interaction trial/first interaction trial)” value (scopolamine induced mice; scopolamine + compound 20 mg kg−1, mean SEM of 6 animals) was 0.377 ± 0.00072 and the “Aβ1-42 aggregation by confocal laser scanning microscopy (ThT fluorescence)” value (Aβ1-42 [4]) was “proficiently prevents Aβ1-42 fibril formation”. The “Aβ1-42 fibril formation by TEM” value (Aβ1-42 [5]) was “small dissociated aggregates and no characteristic fibrils of Aβ1-42”.

Compound `CS(=O)(=O)c1ccc2nc(NC(=O)CCN3CCN(C(=O)c4ccco4)CC3)sc2c1` [Compound 14, 3-[4-(Furan-2-carbonyl)-piperazin-1-yl]-N-(6-methanesulfonyl-benzothiazol-2-yl)-propionamide] has an IC50 (AChE from electric eel) of 14.6 ± 0.438 µM and an IC50 (BuChE from equine serum) of over 100 µM.

With `CS(=O)(=O)c1ccc2nc(NC(=O)CCN3CCN(c4ccc(F)cc4)CC3)sc2c1` [Compound 5, 3-[4-(4-Fluoro-phenyl)-piperazin-1-yl]-N-(6-methanesulfonyl-benzothiazol-2-yl)-propionamide] the IC50 (AChE from electric eel) was 18.3 ± 0.777 µM and the IC50 (BuChE from equine serum) was over 100 µM.

For `CS(=O)(=O)c1ccc2nc(NC(=O)CCN3CCN(c4ncccn4)CC3)sc2c1` [Compound 13, N-(6-Methanesulfonyl-benzothiazol-2-yl)-3-(4-pyrimidin-2-yl-piperazin-1-yl)-propionamide], the IC50 (AChE from electric eel) was 10.9 ± 0.657 µM and the IC50 (BuChE from equine serum) was over 100 µM.

For `COc1cc2c(cc1OC)C(=O)C(CC1CCN(Cc3ccccc3)CC1)C2` (centres unmarked) [Donepezil, reference compound], the “Transfer latency (TL)” value ([3]; scopolamine 3 mg kg−1 + donepezil 5 mg kg−1 i.p., 7 days) was 15.08 ± 1 s.

In the case of `COc1cc(/C=C/C(=O)CC(=O)/C=C/c2ccc(O)c(OC)c2)ccc1O` [Curcumin, reference compound], the “Aβ1-42 fibril formation by TEM” value (Aβ1-42 [5]) is reported as “small dissociated aggregates and no characteristic fibrils of Aβ1-42”.

Work on `CS(=O)(=O)c1ccc2nc(NC(=O)CCN3CCN(C(=O)OCc4ccccc4)CC3)sc2c1` [Compound 15, 4-[2-(6-Methanesulfonyl-benzothiazol-2-ylcarbamoyl)-ethyl]-piperazine-1-carboxylic acid benzyl ester] yielded an IC50 (AChE from electric eel) of 19.5 ± 0.452 µM and an IC50 (BuChE from equine serum) of over 100 µM.

Compound `CS(=O)(=O)c1ccc2nc(NC(=O)CCN3CCN(c4ccccc4)CC3)sc2c1` [Compound 4, N-(6-Methanesulfonyl-benzothiazol-2-yl)-3-(4-phenyl-piperazin-1-yl)-propionamide] has an IC50 (AChE from electric eel) of 24.1 ± 0.721 µM and an IC50 (BuChE from equine serum) of over 100 µM.

Compound `Cc1ccc(N2CCN(CCC(=O)Nc3nc4ccc(S(C)(=O)=O)cc4s3)CC2)cc1` [Compound 8, N-(6-Methanesulfonyl-benzothiazol-2-yl)-3-(4-p-tolyl-piperazin-1-yl)-propionamide] has an IC50 (AChE from electric eel) of 20.2 ± 1.44 µM and an IC50 (BuChE from equine serum) of over 100 µM.

With `CN1[C@@H]2C[C@@H](OC(=O)[C@H](CO)c3ccccc3)C[C@H]1[C@@H]1O[C@@H]12` [scopolamine, Scopolamine hydrobromide, reference compound] the “Transfer latency (TL)” value ([3]; scopolamine 3 mg kg−1 i.p. alone, retention trial) was 22.00 ± 0.81 s and the “T2/T1 ratio (second interaction trial/first interaction trial)” value (scopolamine induced mice; scopolamine 3 mg kg−1 alone, mean SEM of 6 animals) was 1.103 ± 0.037.

With `COc1ccc(N2CCN(CCC(=O)Nc3nc4ccc(S(C)(=O)=O)cc4s3)CC2)cc1` [Compound 9, N-(6-Methanesulfonyl-benzothiazol-2-yl)-3-[4-(4-methoxy-phenyl)-piperazin-1-yl]-propionamide] the IC50 (AChE from electric eel) was 14.5 ± 1.03 µM and the IC50 (BuChE from equine serum) was over 100 µM.

`CS(=O)(=O)c1ccc2nc(NC(=O)CCN3CCN(Cc4ccc5c(c4)OCO5)CC3)sc2c1` [Compound 16, 3-(4-Benzo[1,3]dioxol-5-ylmethyl-piperazin-1-yl)-N-(6-methanesulfonyl-benzothiazol-2-yl)-propionamide] showed an IC50 (AChE from electric eel) of 5.24 µM and an IC50 (BuChE from equine serum) of over 100 µM.

Compound `CS(=O)(=O)c1ccc2nc(NC(=O)CCN3CCN(Cc4ccccc4)CC3)sc2c1` [Compound 10, 3-(4-Benzyl-piperazin-1-yl)-N-(6-methanesulfonyl-benzothiazol-2-yl)-propionamide] has an IC50 (AChE from electric eel) of 7.83 µM and an IC50 (BuChE from equine serum) of over 100 µM.

`CS(=O)(=O)c1ccc2nc(NC(=O)CCN3CCN(c4ccc(Cl)cc4)CC3)sc2c1` [Compound 6, 3-[4-(4-Chloro-phenyl)-piperazin-1-yl]-N-(6-methanesulfonyl-benzothiazol-2-yl)-propionamide] gave an IC50 (AChE from electric eel) of 13 ± 0.813 µM and an IC50 (BuChE from equine serum) of over 100 µM.

In the case of `OO` [Compound H2O2, hydrogen peroxide], the “Cell viability with H2O2 alone” value (SH-SY5Y cells [6]) is reported as 54.90%.
